# Experimental data reported in the supplement of paper PMC10307832.
# Key:
# Assay in all cases: relative viability (nuclei count vs DMSO), 5 days (fraction); higher = more cells survive
# NCI-H1755 = tested on: NCI-H1755
# In short: (§1)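 A single step with final 0.05% Triton X-100, 1% formaldehyde and 1 ug/ml Hoechst fixed the cells and stained nuclei 5 days after treatment. Lung cancer cell lines in 1536-well plates had been treated by pin tool the day after seeding with one drug alone or a fixed anchor-drug dose plus five library-drug doses (not always all listed) in √10 steps, and nuclei were counted on 4× images. Relative viability is the ratio of nuclei in treated wells to nuclei in vehicle wells, taken as the median of duplicate plates.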
# PC-3 [JPC-3] = tested on: PC-3 [JPC-3]
# In short: as §1
# RERF-LC-KJ = tested on: RERF-LC-KJ
# In short: as §1
# LU99A = tested on: LU99A
# In short: as §1
# HCC-78 = tested on: HCC-78
# In short: as §1
# NCI-H3122 = tested on: NCI-H3122
# In short: as §1
# NCI-H1793 = tested on: NCI-H1793
# In short: as §1
# NCI-H1944 = tested on: NCI-H1944
# In short: as §1
# NCI-H1395 = tested on: NCI-H1395
# In short: as §1
# ChaGo-K-1 = tested on: ChaGo-K-1
# In short: as §1
# HCC-366 = tested on: HCC-366
# In short: as §1
# NCI-H2087 = tested on: NCI-H2087
# In short: as §1
# LOU-NH91 = tested on: LOU-NH91
# In short: as §1
# CAL-12T = tested on: CAL-12T
# In short: as §1
# NCI-H2405 = tested on: NCI-H2405
# In short: as §1
# NCI-H2228 = tested on: NCI-H2228
# In short: as §1
# LC-2-ad = tested on: LC-2-ad
# In short: as §1
# UMC-11 = tested on: UMC-11
# In short: as §1
# NCI-H2170 = tested on: NCI-H2170
# In short: as §1
# ABC-1 = tested on: ABC-1
# In short: as §1
# NCI-H1651 = tested on: NCI-H1651
# In short: as §1
# NCI-H460 = tested on: NCI-H460
# In short: as §1
structure (smiles),measurement,setting,value
CCN(CC)CCCCNc1ncc2cc(-c3cc(OC)cc(OC)c3)c(NC(=O)NC(C)(C)C)nc2n1 + CC(=O)c1c(C)c2cnc(Nc3ccc(N4CCNCC4)cn3)nc2n(C2CCCC2)c1=O [Palbociclib] (partner 0.5 µM),relative viability,NCI-H1755; first compound 0.01 µM,0.474
same,relative viability,NCI-H1755; first compound 0.03162 µM,0.448
same,relative viability,NCI-H1755; first compound 0.1 µM,0.462
same,relative viability,NCI-H1755; first compound 0.3162 µM,0.472
same,relative viability,NCI-H1755; first compound 1 µM,0.459
same,relative viability,PC-3 [JPC-3]; first compound 0.03162 µM,0.607
same,relative viability,PC-3 [JPC-3]; first compound 0.1 µM,0.616
same,relative viability,PC-3 [JPC-3]; first compound 0.3162 µM,0.539
same,relative viability,PC-3 [JPC-3]; first compound 1 µM,0.58
same,relative viability,RERF-LC-KJ; first compound 0.01 µM,1.07
same,relative viability,RERF-LC-KJ; first compound 0.03162 µM,1.12
same,relative viability,RERF-LC-KJ; first compound 0.1 µM,1.2
same,relative viability,RERF-LC-KJ; first compound 0.3162 µM,1.13
same,relative viability,RERF-LC-KJ; first compound 1 µM,1.05
same,relative viability,LU99A; first compound 0.01 µM,0.364
same,relative viability,LU99A; first compound 0.03162 µM,0.393
same,relative viability,LU99A; first compound 0.1 µM,0.457
same,relative viability,LU99A; first compound 0.3162 µM,0.446
same,relative viability,LU99A; first compound 1 µM,0.338
same,relative viability,HCC-78; first compound 0.01 µM,0.465
same,relative viability,HCC-78; first compound 0.03162 µM,0.448
same,relative viability,HCC-78; first compound 0.1 µM,0.525
same,relative viability,HCC-78; first compound 0.3162 µM,0.45
same,relative viability,HCC-78; first compound 1 µM,0.465
same,relative viability,NCI-H3122; first compound 0.01 µM,0.184
same,relative viability,NCI-H3122; first compound 0.03162 µM,0.175
same,relative viability,NCI-H3122; first compound 0.1 µM,0.157
same,relative viability,NCI-H3122; first compound 0.3162 µM,0.194
same,relative viability,NCI-H3122; first compound 1 µM,0.179
same,relative viability,NCI-H1793; first compound 0.01 µM,0.288
same,relative viability,NCI-H1793; first compound 0.03162 µM,0.295
same,relative viability,NCI-H1793; first compound 0.1 µM,0.403
same,relative viability,NCI-H1793; first compound 0.3162 µM,0.277
same,relative viability,NCI-H1793; first compound 1 µM,0.269
same,relative viability,NCI-H1944; first compound 0.01 µM,0.35
same,relative viability,NCI-H1944; first compound 0.03162 µM,0.345
same,relative viability,NCI-H1944; first compound 0.1 µM,0.312
same,relative viability,NCI-H1944; first compound 0.3162 µM,0.348
same,relative viability,NCI-H1944; first compound 1 µM,0.278
same,relative viability,NCI-H1395; first compound 0.01 µM,0.637
same,relative viability,NCI-H1395; first compound 0.03162 µM,0.59
same,relative viability,NCI-H1395; first compound 0.1 µM,0.661
same,relative viability,NCI-H1395; first compound 0.3162 µM,0.546
same,relative viability,NCI-H1395; first compound 1 µM,0.448
same,relative viability,ChaGo-K-1; first compound 0.01 µM,0.98
same,relative viability,ChaGo-K-1; first compound 0.03162 µM,0.915
same,relative viability,ChaGo-K-1; first compound 0.1 µM,1.08
same,relative viability,ChaGo-K-1; first compound 0.3162 µM,0.997
same,relative viability,ChaGo-K-1; first compound 1 µM,0.823
same,relative viability,HCC-366; first compound 0.01 µM,0.364
same,relative viability,HCC-366; first compound 0.03162 µM,0.406
same,relative viability,HCC-366; first compound 0.1 µM,0.504
same,relative viability,HCC-366; first compound 0.3162 µM,0.438
same,relative viability,HCC-366; first compound 1 µM,0.441
same,relative viability,NCI-H2087; first compound 0.01 µM,0.154
same,relative viability,NCI-H2087; first compound 0.03162 µM,0.219
same,relative viability,NCI-H2087; first compound 0.1 µM,0.206
same,relative viability,NCI-H2087; first compound 0.3162 µM,0.234
same,relative viability,NCI-H2087; first compound 1 µM,0.225
same,relative viability,LOU-NH91; first compound 0.01 µM,0.572
same,relative viability,LOU-NH91; first compound 0.03162 µM,0.546
same,relative viability,LOU-NH91; first compound 0.1 µM,0.557
same,relative viability,LOU-NH91; first compound 0.3162 µM,0.491
same,relative viability,LOU-NH91; first compound 1 µM,0.412
same,relative viability,CAL-12T; first compound 0.01 µM,0.411
same,relative viability,CAL-12T; first compound 0.03162 µM,0.456
same,relative viability,CAL-12T; first compound 0.1 µM,0.518
same,relative viability,CAL-12T; first compound 0.3162 µM,0.419
same,relative viability,CAL-12T; first compound 1 µM,0.408
same,relative viability,NCI-H2405; first compound 0.01 µM,0.567
same,relative viability,NCI-H2405; first compound 0.03162 µM,0.564
same,relative viability,NCI-H2405; first compound 0.1 µM,0.539
same,relative viability,NCI-H2405; first compound 0.3162 µM,0.534
same,relative viability,NCI-H2405; first compound 1 µM,0.52
same,relative viability,NCI-H2228; first compound 0.01 µM,1.23
same,relative viability,NCI-H2228; first compound 0.03162 µM,0.561
same,relative viability,NCI-H2228; first compound 0.1 µM,0.434
same,relative viability,NCI-H2228; first compound 0.3162 µM,0.862
same,relative viability,NCI-H2228; first compound 1 µM,0.513
same,relative viability,LC-2-ad; first compound 0.01 µM,0.503
same,relative viability,LC-2-ad; first compound 0.03162 µM,0.486
same,relative viability,LC-2-ad; first compound 0.1 µM,0.491
same,relative viability,LC-2-ad; first compound 0.3162 µM,0.589
same,relative viability,LC-2-ad; first compound 1 µM,0.473
same,relative viability,UMC-11; first compound 0.01 µM,0.338
same,relative viability,UMC-11; first compound 0.03162 µM,0.305
same,relative viability,UMC-11; first compound 0.1 µM,0.351
same,relative viability,UMC-11; first compound 0.3162 µM,0.313
same,relative viability,UMC-11; first compound 1 µM,0.343
same,relative viability,NCI-H2170; first compound 0.01 µM,0.38
same,relative viability,NCI-H2170; first compound 0.03162 µM,0.37
same,relative viability,NCI-H2170; first compound 0.1 µM,0.429
same,relative viability,NCI-H2170; first compound 0.3162 µM,0.409
same,relative viability,NCI-H2170; first compound 1 µM,0.385
same,relative viability,ABC-1; first compound 0.03162 µM,0.968
same,relative viability,ABC-1; first compound 0.1 µM,0.724
same,relative viability,ABC-1; first compound 0.3162 µM,0.832
same,relative viability,ABC-1; first compound 1 µM,0.574
same,relative viability,NCI-H1651; first compound 0.01 µM,0.539
same,relative viability,NCI-H1651; first compound 0.03162 µM,0.511
same,relative viability,NCI-H1651; first compound 0.1 µM,0.547
same,relative viability,NCI-H1651; first compound 0.3162 µM,0.541
same,relative viability,NCI-H1651; first compound 1 µM,0.47
same,relative viability,NCI-H460; first compound 0.01 µM,0.147
same,relative viability,NCI-H460; first compound 0.03162 µM,0.222
same,relative viability,NCI-H460; first compound 0.1 µM,0.112
same,relative viability,NCI-H460; first compound 0.3162 µM,0.165
same,relative viability,NCI-H460; first compound 1 µM,0.147
